Assays:
[1] = system: IL-13 induced STAT6 phosphorylation in BEAS-2B human lung epithelial cells; assay: AlphaScreen cellular potency assay, IL-13 induced STAT6 phosphorylation in BEAS-2B cells; assay type: cell-based; conditions: IL-13 induced STAT6 phosphorylation, BEAS-2B cells; for IC50: Homo sapiens, read-out: BEAS-2B pIC50 (converted)
Description: The AlphaScreen JAM cellular potency assay was carried out by measuring interleukin-13 (IL-13, R&D Systems) induced STAT6 phosphorylation in BEAS-2B human lung epithelial cells (ATCC). The anti-STAT6 antibody (Cell Signaling Technologies) was conjugated to AlphaScreen acceptor beads (Perkin Elmer), while the anti-pSTAT6 (pTyr641) antibody (Cell Signaling Technologies) was biotinylated using EZ-Link Sulfo-NHS-Biotin (Thermo Scientific).
BEAS-2B cells were grown at 37° C. in a 5% CO2 humidified incubator in 50% DMEM/50% F-12 medium (Life Technologies) supplemented with 10% FBS (Hyclone), 100 U/mL penicillin, 100 μg/mL streptomycin (Life Technologies), and 2 mM GlutaMAX (Life Technologies). On day 1 of the assay, cells were seeded at a 7,500 cells/well density in white poly-D-lysine-coated 384-well plates (Corning) with 25 μL medium, and were allowed to adhere overnight in the incubator. On day 2 of the assay, the medium was removed and replaced with 12 μL of assay buffer (Hank's Balanced Salt Solution/HBSS, 25 mM HEPES, and 1 mg/ml bovine serum albumin/BSA) containing dose-responses of test compounds. Compounds were serially diluted in DMSO and then diluted another 1000-fold in media to bring the final DMSO concentration to 0.1%. Cells were incubated with test compounds at 37° C. for 1 h, and followed by the addition of 12 μl of pre-warmed IL-13 (80 ng/ml in assay buffer) for stimulation. After incubating at 37° C. for 30 min, the assay buffer (containing compound and IL-13) was removed, and 10 μl of cell lysis buffer (25 mM HEPES, 0.1% SDS, 1% NP-40, 5 mM MgCl2, 1.3 mM EDTA, 1 mM EGTA, and supplement with Complete Ultra mini protease inhibitors and PhosSTOP from Roche Diagnostics). The plates were shaken at ambient temperature for 30 min before the addition of detection reagents. A mixture of biotin-anti-pSTAT6 and anti-STAT6 conjugated acceptor beads was added first and incubated at ambient temperature for 2 h, followed by the addition of streptavidin conjugated donor beads (Perkin Elmer). After a minimum of 2 h incubation, the assay plates were read on the EnVision plate reader.
Results were expressed as the negative logarithm of the IC50 value, pIC50.

[2] = target: JAK2 (Homo sapiens (Human), UniProt O60674)
[3] = target: JAK3 (Homo sapiens (Human), UniProt P52333); assay: LanthaScreen JAK biochemical assay (JAK3); conditions: ATP at Km 1.6 μM; read-out: JAK 3 (pKi) (converted)
[4] = system: IL-13 induced pSTAT6 in lung tissue; assay: Murine model of IL-13 induced pSTAT6 induction in lung tissue; assay type: in vivo; conditions: mouse lung; for inhibition in vivo at 500 µg/mL / pSTAT6 inhibition Assay 5: 0.5 mg/mL, 50 μL oral aspiration, IL-13 challenge 4 h after dosing, lungs collected 1 h later; for inhibition in vivo at 500 µg/mL: read-out: pSTAT6 inhibition Assay 5
Description: Il-13 is an important cytokine underlying the pathophysiology of asthma (Kudlacz et al. Eur. J. Pharmacol, 2008, 582, 154-161). IL-13 binds to cell surface receptors activating members of the Janus family of kinases (JAK) which then phosphorylate STAT6 and subsequently activates further transcription pathways. In the described model, a dose of IL-13 was delivered locally into the lungs of mice to induce the phosphorylation of STAT6 (pSTAT6) which is then measured as the endpoint.
Adult balb/c mice from Harlan were used in the assay. On the day of study, animals were lightly anesthetized with isoflurane and administered either vehicle or test compound (0.5 mg/mL, 50 μL total volume over several breaths) via oral aspiration. Animals were placed in lateral recumbency post dose and monitored for full recovery from anesthesia before being returned to their home cage. Four hours later, animals were once again briefly anesthetized and challenged with either vehicle or IL-13 (0.03 μg total dose delivered, 50 μL total volume) via oral aspiration before being monitored for recovery from anesthesia and returned to their home cage. One hour after vehicle or IL-13 administration, lungs were collected for both pSTAT6 detection using an anti-pSTAT6 ELISA (rabbit mAb capture/coating antibody; mouse mAb detection/report antibody: anti-pSTAT6-pY641; secondary antibody: anti-mouse IgG-HRP) and analyzed for total drug concentration as described above in Assay 4.
Selected compounds of the invention were tested in the assay. Activity in the model is evidenced by a decrease in the level of pSTAT6 present in the lungs of treated animals at 5 hours compared to the vehicle treated, IL-13 challenged control animals. The difference between the control animals which were vehicle-treated, IL-13 challenged and the control animals which were vehicle-treated, vehicle challenged dictated the 0% and 100% inhibitory effect, respectively, in any given experiment.

[5] = Pharmacokinetics in plasma and lung in mouse; assay type: in vivo; conditions: oral aspiration 0.2 mg/mL 50 uL, lung AUC (μg hr/g) / plasma AUC (μg hr/mL)
Description: Plasma and lung levels of test compounds and ratios thereof were determined in the following manner. BALB/c mice from Charles River Laboratories were used in the assay. Test compounds were individually formulated in 20% propylene glycol in pH 4 citrate buffer at a concentration of 0.2 mg/mL and 50 uL of the dosing solution was introduced into the trachea of a mouse by oral aspiration. At various time points (typically 0.167, 2, 6, 24 hr) post dosing, blood samples were removed via cardiac puncture and intact lungs were excised from the mice. Blood samples were centrifuged (Eppendorf centrifuge, 5804R) for 4 minutes at approximately 12,000 rpm at 4° C. to collect plasma. Lungs were padded dry, weighed, and homogenized at a dilution of 1:3 in sterile water. Plasma and lung levels of test compound were determined by LC-MS analysis against analytical standards constructed into a standard curve in the test matrix. A lung to plasma ratio was determined as the ratio of the lung AUC in μg hr/g to the plasma AUC in μg hr/mL, where AUC is conventionally defined as the area under the curve of test compound concentration vs. time.

[6] = target: Tyk2 (Homo sapiens (Human), UniProt P29597); assay: LanthaScreen JAK biochemical assay (Tyk2); conditions: read-out: Tyk 2 (PKi); also: ATP at Km 10 µM
Sequence of Tyk2 (P29597 whole entry): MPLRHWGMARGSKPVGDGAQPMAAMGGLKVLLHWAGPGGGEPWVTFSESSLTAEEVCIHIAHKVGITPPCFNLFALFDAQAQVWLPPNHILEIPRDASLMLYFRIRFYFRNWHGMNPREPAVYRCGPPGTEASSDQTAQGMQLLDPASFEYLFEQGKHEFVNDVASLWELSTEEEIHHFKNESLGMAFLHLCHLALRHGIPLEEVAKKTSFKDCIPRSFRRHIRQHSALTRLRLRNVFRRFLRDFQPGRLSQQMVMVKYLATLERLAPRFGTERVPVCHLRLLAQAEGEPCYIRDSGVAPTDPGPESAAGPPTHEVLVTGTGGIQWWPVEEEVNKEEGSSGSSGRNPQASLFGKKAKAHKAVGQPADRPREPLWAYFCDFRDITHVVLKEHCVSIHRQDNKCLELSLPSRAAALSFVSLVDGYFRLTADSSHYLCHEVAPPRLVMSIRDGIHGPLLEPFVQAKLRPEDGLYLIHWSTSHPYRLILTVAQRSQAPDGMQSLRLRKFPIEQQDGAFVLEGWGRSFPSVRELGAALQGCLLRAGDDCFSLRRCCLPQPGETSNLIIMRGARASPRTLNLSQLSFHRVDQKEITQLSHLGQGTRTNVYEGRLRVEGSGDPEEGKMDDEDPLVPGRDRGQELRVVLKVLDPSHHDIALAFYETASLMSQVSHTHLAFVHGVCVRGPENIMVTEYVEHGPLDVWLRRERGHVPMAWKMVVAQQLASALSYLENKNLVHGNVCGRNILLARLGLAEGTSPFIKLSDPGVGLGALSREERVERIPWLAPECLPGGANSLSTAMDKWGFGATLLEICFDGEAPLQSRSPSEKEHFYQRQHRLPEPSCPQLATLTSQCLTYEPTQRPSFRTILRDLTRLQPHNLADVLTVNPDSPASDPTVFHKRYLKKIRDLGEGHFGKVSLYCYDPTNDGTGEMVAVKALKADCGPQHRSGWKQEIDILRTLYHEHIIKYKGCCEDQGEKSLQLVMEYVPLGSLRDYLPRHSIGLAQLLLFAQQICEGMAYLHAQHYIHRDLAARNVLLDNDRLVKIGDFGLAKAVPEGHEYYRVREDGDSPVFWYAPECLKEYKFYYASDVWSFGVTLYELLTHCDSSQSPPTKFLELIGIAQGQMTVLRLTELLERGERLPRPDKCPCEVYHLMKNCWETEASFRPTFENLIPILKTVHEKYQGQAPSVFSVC

Sequence of JAK2 (O60674 whole entry): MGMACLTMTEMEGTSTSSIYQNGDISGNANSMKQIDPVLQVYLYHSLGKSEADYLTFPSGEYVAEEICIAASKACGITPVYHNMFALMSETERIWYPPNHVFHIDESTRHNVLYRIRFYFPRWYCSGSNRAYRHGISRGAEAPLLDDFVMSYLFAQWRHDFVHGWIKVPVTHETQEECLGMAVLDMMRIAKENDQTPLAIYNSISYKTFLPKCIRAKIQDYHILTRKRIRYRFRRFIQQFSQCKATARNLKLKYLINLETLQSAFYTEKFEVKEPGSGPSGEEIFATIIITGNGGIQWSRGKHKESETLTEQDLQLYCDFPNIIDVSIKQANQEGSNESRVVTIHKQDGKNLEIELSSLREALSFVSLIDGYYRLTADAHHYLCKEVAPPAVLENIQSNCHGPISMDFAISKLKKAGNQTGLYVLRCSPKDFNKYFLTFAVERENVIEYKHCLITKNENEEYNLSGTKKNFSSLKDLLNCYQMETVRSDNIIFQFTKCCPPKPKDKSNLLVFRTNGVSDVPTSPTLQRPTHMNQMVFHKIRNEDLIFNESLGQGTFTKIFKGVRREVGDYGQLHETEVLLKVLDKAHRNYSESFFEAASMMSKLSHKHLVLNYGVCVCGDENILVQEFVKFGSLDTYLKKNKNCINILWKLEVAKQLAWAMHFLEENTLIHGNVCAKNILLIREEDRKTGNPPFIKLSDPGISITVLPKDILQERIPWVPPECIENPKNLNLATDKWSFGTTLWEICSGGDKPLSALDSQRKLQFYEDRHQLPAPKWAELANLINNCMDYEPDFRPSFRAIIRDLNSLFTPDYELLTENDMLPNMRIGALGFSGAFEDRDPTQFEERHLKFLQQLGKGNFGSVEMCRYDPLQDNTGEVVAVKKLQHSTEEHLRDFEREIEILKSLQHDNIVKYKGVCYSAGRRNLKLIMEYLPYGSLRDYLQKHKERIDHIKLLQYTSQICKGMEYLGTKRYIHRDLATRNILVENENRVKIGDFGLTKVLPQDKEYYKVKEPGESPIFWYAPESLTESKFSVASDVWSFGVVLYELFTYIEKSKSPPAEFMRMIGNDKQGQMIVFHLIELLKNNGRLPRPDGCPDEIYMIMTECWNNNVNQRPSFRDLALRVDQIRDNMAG
Sequence of JAK3 (P52333 whole entry): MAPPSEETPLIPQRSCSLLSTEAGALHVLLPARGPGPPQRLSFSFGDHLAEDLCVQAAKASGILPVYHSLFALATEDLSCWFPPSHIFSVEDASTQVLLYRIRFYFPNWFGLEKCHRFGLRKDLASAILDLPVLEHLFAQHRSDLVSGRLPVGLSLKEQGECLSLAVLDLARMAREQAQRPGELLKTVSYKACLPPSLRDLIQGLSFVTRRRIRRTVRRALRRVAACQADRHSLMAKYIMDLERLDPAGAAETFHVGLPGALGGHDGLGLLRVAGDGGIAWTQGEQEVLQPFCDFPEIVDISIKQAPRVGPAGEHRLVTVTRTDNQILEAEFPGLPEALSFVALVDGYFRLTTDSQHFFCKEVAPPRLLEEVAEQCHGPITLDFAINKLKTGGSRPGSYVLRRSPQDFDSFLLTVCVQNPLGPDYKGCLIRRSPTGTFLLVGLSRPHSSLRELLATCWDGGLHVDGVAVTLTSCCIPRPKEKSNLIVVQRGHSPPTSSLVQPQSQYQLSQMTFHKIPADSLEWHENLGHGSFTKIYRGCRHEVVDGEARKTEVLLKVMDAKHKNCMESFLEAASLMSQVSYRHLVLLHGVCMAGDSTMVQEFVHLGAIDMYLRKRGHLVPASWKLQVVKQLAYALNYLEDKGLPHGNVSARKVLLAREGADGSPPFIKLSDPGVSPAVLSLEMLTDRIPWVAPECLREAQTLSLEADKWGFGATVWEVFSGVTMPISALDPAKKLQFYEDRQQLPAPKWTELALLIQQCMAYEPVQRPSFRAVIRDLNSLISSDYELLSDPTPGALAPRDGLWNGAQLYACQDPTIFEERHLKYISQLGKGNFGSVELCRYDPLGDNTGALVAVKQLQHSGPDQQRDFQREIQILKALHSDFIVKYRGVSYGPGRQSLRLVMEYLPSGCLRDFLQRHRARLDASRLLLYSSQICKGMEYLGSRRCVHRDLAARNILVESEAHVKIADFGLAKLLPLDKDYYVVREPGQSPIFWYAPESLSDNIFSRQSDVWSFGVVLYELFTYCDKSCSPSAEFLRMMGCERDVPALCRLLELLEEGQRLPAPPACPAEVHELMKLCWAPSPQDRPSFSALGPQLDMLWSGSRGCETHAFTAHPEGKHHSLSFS

Compound | IC50 [1] | Ki [2] | inhibition in vivo at 500 µg/mL [4] | Lung to Plasma ratio Assay 4 [5] | BEAS-2B pIC50 [1] | other results
CCc1cc(O)c(F)cc1-c1ccc2c(-c3nc4c([nH]3)CCN(CCN(C)C(C)CC)C4)n[nH]c2c1 (stereo not shown) [Example 10, 4-(3-(5-(2-(sec-butyl(methyl)amino)ethyl)-4,5,6,7-tetrahydro-1H-imidazo[4,5-c]pyridin-2-yl)-1H-indazol-6-yl)-5-ethyl-2-fluorophenol] | < 10000 pM | < 100 pM | 33 to 50% | B (B denotes a ratio between 50 and 100) |  | Ki [3]: 100 to 1000 pM; Ki [6]: 100 to 1000 pM
CCc1cc(O)c(F)cc1-c1ccc2c(-c3nc4c([nH]3)CCN(C3CCNC3)C4)n[nH]c2c1 (stereo not shown) [Example 9-1] |  | < 100 pM |  |  | B (B represents a pIC50 value between 7.4 and 8 (IC50 between 40 nM and 10 nM)) | 
CCc1cc(O)c(F)cc1-c1ccc2c(-c3nc4c([nH]3)CCN(C[C@@H]3COCCN3)C4)n[nH]c2c1 [Example 14, (R)-5-Ethyl-2-fluoro-4-(3-(5-(morpholin-3-ylmethyl)-4,5,6,7-tetrahydro-1H-imidazo[4,5-c]pyridin-2-yl)-1H-indazol-6-yl)phenol] | < 10000 pM | < 100 pM | > 65% | A (A denotes a ratio >100) |  | 
CCc1cc(O)c(F)cc1-c1ccc2c(-c3nc4c([nH]3)CCN(CCNC3(C#N)CC3)C4)n[nH]c2c1 [Example 3-1] |  |  |  |  |  | pSTAT6 inhibition in the pharmacodynamic assay [4]: exceptions
CCc1cc(O)c(F)cc1-c1ccc2c(-c3nc4c([nH]3)CCN(C3CN(CCO)C3)C4)n[nH]c2c1 [Example 1-1] |  | < 100 pM |  |  | B (B represents a pIC50 value between 7.4 and 8 (IC50 between 40 nM and 10 nM)) | 
CCc1cc(O)c(F)cc1-c1ccc2c(-c3nc4c([nH]3)CCN(CCN(C)CC)C4)n[nH]c2c1 [Example 9, 5-ethyl-4-(3-(5-(2-(ethyl(methyl)amino)ethyl)-4,5,6,7-tetrahydro-1H-imidazo[4,5-c]pyridin-2-yl)-1H-indazol-6-yl)-2-fluorophenol] | < 10000 pM | < 100 pM | 50 to 65% | B (B denotes a ratio between 50 and 100) |  | Ki [6]: 316 to 1000 pM
CCc1cc(O)c(F)cc1-c1ccc2c(-c3nc4c([nH]3)CCN(CCN3CCCC3)C4)n[nH]c2c1 [Example 16, 5-Ethyl-2-fluoro-4-(3-(5-(2-(pyrrolidin-1-yl)ethyl)-4,5,6,7-tetrahydro-1H-imidazo[4,5-c]pyridin-2-yl)-1H-indazol-6-yl)phenol] | < 10000 pM | < 100 pM |  |  |  | 
CCc1cc(O)c(F)cc1-c1ccc2c(-c3nc4c([nH]3)CCN(C3CN(C5CCS(=O)(=O)C5)C3)C4)n[nH]c2c1 (stereo not shown) [Example 1-15] |  |  |  |  |  | pSTAT6 inhibition in the pharmacodynamic assay [4]: exceptions
CCc1cc(O)c(F)cc1-c1ccc2c(-c3nc4c([nH]3)CCN(C3CN(CCCOC)C3)C4)n[nH]c2c1 [Example 1-7] |  |  |  | B (B denotes a ratio between 50 and 100) |  | pSTAT6 inhibition Assay 5 [4]: C (C represents between 33% and 50% inhibition)
CCc1cc(O)c(F)cc1-c1ccc2c(-c3nc4c([nH]3)CCN(CC(F)CN(C)C)C4)n[nH]c2c1 (stereo not shown) [Example 12, 4-(3-(5-(3-(dimethylamino)-2-fluoropropyl)-4,5,6,7-tetrahydro-1H-imidazo[4,5-c]pyridin-2-yl)-1H-indazol-6-yl)-5-ethyl-2-fluorophenol] | < 10000 pM | < 100 pM | 33 to 50% | C (C denotes a ratio between 10 and 50) |  | Ki [3]: 100 to 1000 pM; Ki [6]: 316 to 1000 pM
CCc1cc(O)c(F)cc1-c1ccc2c(-c3nc4c([nH]3)CCN(C3CN(CCC#N)C3)C4)n[nH]c2c1 [Example 1-8] |  | < 100 pM |  |  | A (A represents a pIC50 value ≥8 (IC50≤10 nM)) | 
CCc1cc(O)c(F)cc1-c1ccc2c(-c3nc4c([nH]3)CCN(C3CN(CCOC)C3)C4)n[nH]c2c1 [Example 1-6] |  | < 100 pM |  |  | A (A represents a pIC50 value ≥8 (IC50≤10 nM)) | 
CCc1cc(O)c(F)cc1-c1ccc2c(-c3nc4c([nH]3)CCN(CC3CNC3)C4)n[nH]c2c1 [Example 14-7] |  | < 100 pM |  | A (A denotes a ratio >100) | B (B represents a pIC50 value between 7.4 and 8 (IC50 between 40 nM and 10 nM)) | pSTAT6 inhibition Assay 5 [4]: B (B represents between 50% and 65% inhibition)
CCc1cc(O)c(F)cc1-c1ccc2c(-c3nc4c([nH]3)CCN(C3CN(C5CC5)C3)C4)n[nH]c2c1 [Example 5, 4-(3-(5-(1-cyclopropylazetidin-3-yl)-4,5,6,7-tetrahydro-1H-imidazo[4,5-c]pyridin-2-yl)-1H-indazol-6-yl)-5-ethyl-2-fluorophenol] | < 10000 pM | < 100 pM | > 65% | C (C denotes a ratio between 10 and 50) |  | Ki [3]: 100 to 1000 pM; Ki [6]: 316 to 1000 pM
CCc1cc(O)c(F)cc1-c1ccc2c(-c3nc4c([nH]3)CCN(C3CCN(C)C3)C4)n[nH]c2c1 (stereo not shown) [Example 9-2] | < 10000 pM | < 100 pM |  |  |  | Ki [6]: 316 to 1000 pM
CCc1cc(O)c(F)cc1-c1ccc2c(-c3nc4c([nH]3)CCN(CCN3CCC[C@@H]3C)C4)n[nH]c2c1 [Example 15, (S)-5-ethyl-2-fluoro-4-(3-(5-(2-(2-methylpyrrolidin-1-yl)ethyl)-4,5,6,7-tetrahydro-1H-imidazo[4,5-c]pyridin-2-yl)-1H-indazol-6-yl)phenol] | < 10000 pM | < 100 pM | 50 to 65% | A (A denotes a ratio >100) |  | Ki [3]: 100 to 1000 pM; Ki [6]: 316 to 1000 pM
CCc1cc(O)c(F)cc1-c1ccc2c(-c3nc4c([nH]3)CCN(C3CN(CC)C3)C4)n[nH]c2c1 [Example 1-3] |  | < 100 pM |  |  | B (B represents a pIC50 value between 7.4 and 8 (IC50 between 40 nM and 10 nM)) | 
CCc1cc(O)c(F)cc1-c1ccc2c(-c3nc4c([nH]3)CCN(C3CCNCC3)C4)n[nH]c2c1 [Example 2-3] |  | < 100 pM |  |  | B (B represents a pIC50 value between 7.4 and 8 (IC50 between 40 nM and 10 nM)) | 
CCc1cc(O)c(F)cc1-c1ccc2c(-c3nc4c([nH]3)CCN(C3CN(C(C)CC)C3)C4)n[nH]c2c1 (stereo not shown) [Example 4, 4-(3-(5-(1-(sec-butyl)azetidin-3-yl)-4,5,6,7-tetrahydro-1H-imidazo[4,5-c]pyridin-2-yl)-1H-indazol-6-yl)-5-ethyl-2-fluorophenol] | < 10000 pM |  | > 65% | B (B denotes a ratio between 50 and 100) |  | 
CCc1cc(O)c(F)cc1-c1ccc2c(-c3nc4c([nH]3)CCN(C3CN(CC(C)C)C3)C4)n[nH]c2c1 [Example 1-11] |  |  |  | C (C denotes a ratio between 10 and 50) |  | pSTAT6 inhibition Assay 5 [4]: C (C represents between 33% and 50% inhibition)
CCc1cc(O)c(F)cc1-c1ccc2c(-c3nc4c([nH]3)CCN(CCN(C)CC(C)C)C4)n[nH]c2c1 [Example 3-33] |  |  |  | A (A denotes a ratio >100) |  | pSTAT6 inhibition Assay 5 [4]: C (C represents between 33% and 50% inhibition)
CCc1cc(O)c(F)cc1-c1ccc2c(-c3nc4c([nH]3)CCN(C3CN(CC5CC5)C3)C4)n[nH]c2c1 [Example 1-18] |  |  |  | B (B denotes a ratio between 50 and 100) |  | pSTAT6 inhibition Assay 5 [4]: C (C represents between 33% and 50% inhibition)

Reference: US10100049B2, “JAK kinase inhibitor compounds for treatment of respiratory disease” (THERAVANCE BIOPHARMA R&D IP, LLC, priority 2015, dated 2018)
